Results as given in patent US20060046988A1, “Methoprene formulations for the control of tick infestations” (priority 2004, published 2006).
Where two headings read alike, the source gives them in different places.

Tested on: Boophilus microplus
Assay: In vitro immersion of engorged female ticks in (S)-methoprene: egg laying, egg weight, hatching
Settings: for Eggs Viable / Eggs Weight / Number of Ticks Laying Eggs (Day 14): 10 ticks treated; for Eggs Hatch (%): eggs incubated another 4 weeks; for Total Egg Mass / Total Viable Egg Mass / Total Number of Ticks Laying Eggs: both replicates; for Total Number of Ticks Laying Eggs: 20 ticks treated; for Percent Reduction in Egg Mass per Tick / Percent Reduction in Number of Ticks Laying Eggs / Percent Reduction in Total Egg Mass / inhibition at 100 ppm / inhibition at 1000 ppm / inhibition at 10000 ppm / inhibition at 100000 ppm: vs 0 ppm; for inhibition at 100 ppm / inhibition at 1000 ppm / inhibition at 10000 ppm / inhibition at 100000 ppm: Rhipicephalus microplus
Text: Engorged female ticks were separated into groups of 10, weighed and placed in small containers. Group assignments were adjusted so that the total weight of ticks in each group was similar. Each container of 10 ticks was then randomly assigned to one of the five treatment groups, with two replicates per group. Each replicate of ten female ticks each was then immersed in a solution of (S)-methoprene at a concentration of 0, 100, 1000, 10000 and 100000 ppm of (S)-methoprene diluted in acetone:water (40:60 vN). The ticks were maintained immersed in a treatment for 2 minutes.
After exposure, ticks were removed and dried in a pad prepared with paper towels. Each group was then placed into a clean container identified with the treatment group and incubated for 2 weeks at approximately 27° Celsius and 60% or higher relative humidity to determine the proportion of egg laying females. Eggs laid were weighed and incubated for another 4-week period for hatching observation.

## COC(C)(C)CCC[C@H](C)C/C=C/C(C)=C/C(=O)OC(C)C [(S)-methoprene]
100 ppm
  Egg Mass per Tick: 0.173 g
  Viable Egg Mass per Tick: 0.173 g
  Total Egg Mass: 2.77 g
  Total Viable Egg Mass: 2.77 g
  Total Number of Ticks Laying Eggs: 16
  Percent Reduction in Egg Mass per Tick: 1%
  Percent Reduction in Number of Ticks Laying Eggs: 20%
  Percent Reduction in Total Egg Mass: 21%
100 ppm, Replicate A
  Eggs Viable: 1.38 g
  Eggs Weight: 1.38 g
  Number of Ticks Laying Eggs (Day 14): 9
  Eggs Hatch (%): 100%
100 ppm, Replicate B
  Eggs Viable: 1.39 g
  Eggs Weight: 1.39 g
  Number of Ticks Laying Eggs (Day 14): 7
  Eggs Hatch (%): 100%
1,000 ppm
  Egg Mass per Tick: 0.152 g
  Viable Egg Mass per Tick: 0.022 g
  Total Egg Mass: 0.91 g
  Total Viable Egg Mass: 0.13 g
  Total Number of Ticks Laying Eggs: 6
  Percent Reduction in Egg Mass per Tick: 13%
  Percent Reduction in Number of Ticks Laying Eggs: 70%
  Percent Reduction in Total Egg Mass: 74%
1,000 ppm, Replicate A
  Eggs Viable: 0.09 g
  Eggs Weight: 0.47 g
  Number of Ticks Laying Eggs (Day 14): 3
  Eggs Hatch (%): 20%
1,000 ppm, Replicate B
  Eggs Viable: 0.04 g
  Eggs Weight: 0.44 g
  Number of Ticks Laying Eggs (Day 14): 3
  Eggs Hatch (%): 10%
10,000 ppm
  Egg Mass per Tick: 0.134 g
  Viable Egg Mass per Tick: 0 g
  Total Egg Mass: 2.14 g
  Total Viable Egg Mass: 0 g
  Total Number of Ticks Laying Eggs: 16
  Percent Reduction in Egg Mass per Tick: 23%
  Percent Reduction in Number of Ticks Laying Eggs: 20%
  Percent Reduction in Total Egg Mass: 39%
10,000 ppm, Replicate A
  Eggs Viable: 0 g
  Eggs Weight: 1.22 g
  Number of Ticks Laying Eggs (Day 14): 9
  Eggs Hatch (%): 0%
10,000 ppm, Replicate B
  Eggs Viable: 0 g
  Eggs Weight: 0.92 g
  Number of Ticks Laying Eggs (Day 14): 7
  Eggs Hatch (%): 0%
100,000 ppm
  Egg Mass per Tick: 0.125 g
  Viable Egg Mass per Tick: 0 g
  Total Egg Mass: 1.00 g
  Total Viable Egg Mass: 0 g
  Total Number of Ticks Laying Eggs: 8
  Percent Reduction in Egg Mass per Tick: 29%
  Percent Reduction in Number of Ticks Laying Eggs: 60%
  Percent Reduction in Total Egg Mass: 71%
100,000 ppm, Replicate A
  Eggs Viable: 0 g
  Eggs Weight: 0.58 g
  Number of Ticks Laying Eggs (Day 14): 4
  Eggs Hatch (%): 0%
100,000 ppm, Replicate B
  Eggs Viable: 0 g
  Eggs Weight: 0.42 g
  Number of Ticks Laying Eggs (Day 14): 4
  Eggs Hatch (%): 0%
100 ppm, read-out: Percent Reduction in Viable Egg Mass
  inhibition at 100 ppm: 21%
100 ppm, read-out: Percent Reduction in Viable Egg Mass per Tick
  inhibition at 100 ppm: 1%
1,000 ppm, read-out: Percent Reduction in Viable Egg Mass
  inhibition at 1000 ppm: 96%
1,000 ppm, read-out: Percent Reduction in Viable Egg Mass per Tick
  inhibition at 1000 ppm: 87%
10,000 ppm, read-out: Percent Reduction in Viable Egg Mass
  inhibition at 10000 ppm: 100%
10,000 ppm, read-out: Percent Reduction in Viable Egg Mass per Tick
  inhibition at 10000 ppm: 100%
100,000 ppm, read-out: Percent Reduction in Viable Egg Mass
  inhibition at 100000 ppm: 100%
100,000 ppm, read-out: Percent Reduction in Viable Egg Mass per Tick
  inhibition at 100000 ppm: 100%
All treatment groups (100 to 100000 ppm)
  egg laying: Eggs were laid
Concentrations at and above 10,000 ppm
  egg viability: completely inhibited
Concentrations of 10,000 ppm and above
  egg hatching: did not hatch
